The values below come from patent publication EP0209462A1, “Liquid stable anthelmintic and fungicidal composition based on bithionol sulfoxide” (SOCIETE NATIONALE ELF AQUITAINE, priority 1985, dated 1987).

Where two headings read alike, the source gives them in different places. Bounds are passed on as bounds.

The conditions of data set [1]: cited from earlier work.
The nature of data set [2]: Stability test at different pH and temperatures (assay of both actives). Type of data set: physicochemical. An excerpt: Des échantillons de la composition de l'exemple 9, qui contient 8% de bithionol sulfoxyde et 1,9% de chlorhydrate de levamisole, sont amenés à différents pH et conservés aux différentes températures, comme indiqué au tableau 4 ci-après.
Les pH inférieurs à 7 sont ajustés avec du tampon mandéli- que (1 M), tandis que les phosphates habituels ont servi (0,025 M) à fixer le pH supérieur à 7.
Dans chaque cas, le dosage des deux corps actifs est effectué aux différentes périodes choisies et les teneurs en ces corps sont notées au tableau 4.

Data set [3] can be described thus: Maximum tolerated dose and therapeutic index. The settings on record: in vivo, read-out: indice thérapeutique. The text has this: La présente invention apporte un progrès marqué dans les traitements des atteintes justiciables du bithionol sulfoxyde et des mélanges de ce composé avec d'autres anthelminthiques. Elle permet l'application des composés actifs sous la forme d'un liquide homogène, ne donnant pas lieu à la sédimentation, susceptible par conséquent d'être dosé avec précision et appliqué par des personnes non spécialisées.Un autre avantage considérable de la composition suivant l'invention est la possibilité de l'administration de celle-ci par injection, forme qui était complètement exclue jusqu'à présent. Un autre avantage également très important de la composition selon l'invention est qu'elle permet l'utilisation du bithionol sulfoxyde et des autres anthelminthiques, composant le mélange, à des doses moindres que celles qui étaient jusqu'alors utilisées. Pour n'en donner qu'un exemple pour le bithionol sulfoxyde, cette dose peut passer de 40 mg/kg de poids vif traité à 30 mg/kg pour une même efficacité. Lorsque l'on sait que la dose maximale tolérée est de 150 mg/kg, cela fait passer l'indice thérapeutique de moins de 4 à 5.

The conditions of data set [4]: in vivo; cited from earlier work.

Take `[O-][S+](c1cc(Cl)cc(Cl)c1O)c1cc(Cl)cc(Cl)c1O` [bithionol sulfoxyde, bis(hydroxy-2 dichloro-3,5 phényl) sulfoxyde]: in data set [1] (à 25°C), the “insolubilité dans l'eau” value is 4 ppm. Besides, the conservation result is reported as “tout à fait satisfaisante” in data set [2] (pH 2 à 4) and “se conserve bien” in data set [2] (pH de 6 à 8). Further, the selectivity ratio was 5 in data set [3] (dose 30 mg/kg (composition selon l'invention)) and below 4 in data set [3] (dose 40 mg/kg de poids vif (earlier forms)). Also, the “dose maximale tolérée” value in data set [4] was 150 mg/kg.
With `c1ccc([C@H]2CN3CCSC3=N2)cc1` [chlorhydrate de L(-) levamisole, tétrahydro-2,3,5,6 phényl-6 imidazo(2,1-b)thiazole], the “solubilité dans l'eau” value in data set [1] (water) is given as around 20%. Besides, the conservation entry in data set [2] (pH 6 à 8) is given as “tient mal”.
